{"source": "patent US20230053540A1", "about": "“TREATMENT OF LIVER INJURY” (Massachusetts Institute of Technology, priority 2019, published 2023)", "tested_on": "hepatocytes", "assay": "Seq-Well scRNA-Seq of hepatocytes after APAP overdose (signature scores, DEG vs untreated)", "type": "in vivo, mouse", "key": {"[1]": {"details": "cluster A6, DEG between treatment (APAP and PH)"}}}
{"compound": "CC(=O)Nc1ccc(O)cc1", "note": "[APAP, acetaminophen]", "values": [{"measurement": "avg_logFC Tmsb4x", "setting": "[1]", "result": 0.7911}, {"measurement": "avg_logFC Tnfrsf1a", "setting": "[1]", "result": 0.5681}, {"measurement": "avg_logFC Tnfrsf12a", "setting": "[1]", "result": 1.105}, {"measurement": "avg_logFC Tns1", "setting": "[1]", "result": 0.4001}, {"measurement": "avg_logFC Tra2a", "setting": "[1]", "result": 0.7081}, {"measurement": "avg_logFC Trp53inp1", "setting": "[1]", "result": 0.8829}, {"measurement": "avg_logFC Tsc22d2", "setting": "[1]", "result": 0.3629}, {"measurement": "avg_logFC Tsku", "setting": "[1]", "result": 0.3332}, {"measurement": "avg_logFC Tsr1", "setting": "[1]", "result": 0.3392}, {"measurement": "avg_logFC Tubb2a", "setting": "[1]", "result": 0.786}, {"measurement": "avg_logFC Tubb6", "setting": "[1]", "result": 0.5715}, {"measurement": "avg_logFC Txnrd1", "setting": "[1]", "result": 1.375}, {"measurement": "avg_logFC Ugdh", "setting": "[1]", "result": 0.6085}, {"measurement": "avg_logFC Wbp1l", "setting": "[1]", "result": 0.3897}, {"measurement": "avg_logFC Wdr43", "setting": "[1]", "result": 0.3083}, {"measurement": "avg_logFC Xbp1", "setting": "[1]", "result": 0.5694}, {"measurement": "avg_logFC Ywhag", "setting": "[1]", "result": 0.5132}, {"measurement": "avg_logFC Zyx", "setting": "[1]", "result": 0.2799}, {"measurement": "avg_logFC mmu-mir-6240", "setting": "[1]", "result": 1.032}, {"measurement": "avg_logFC n-R5-8s1", "setting": "[1]", "result": 0.4005}, {"measurement": "avg_logFC Acly", "setting": "cluster A24 (APAP, 24 h)", "result": 0.3005}, {"measurement": "avg_logFC Arcn1", "setting": "cluster A24 (APAP, 24 h)", "result": 0.2594}, {"measurement": "avg_logFC Cltc", "setting": "cluster A24 (APAP, 24 h)", "result": 0.2853}, {"measurement": "avg_logFC Cmah", "setting": "cluster A24 (APAP, 24 h)", "result": 0.2958}, {"measurement": "avg_logFC Ctnnb1", "setting": "cluster A24 (APAP, 24 h)", "result": 0.25}, {"measurement": "avg_logFC Dnajb11", "setting": "cluster A24 (APAP, 24 h)", "result": 0.2998}, {"measurement": "avg_logFC Dnajc12", "setting": "cluster A24 (APAP, 24 h)", "result": 0.2565}, {"measurement": "avg_logFC Etnk1", "setting": "cluster A24 (APAP, 24 h)", "result": 0.2761}, {"measurement": "avg_logFC Fndc3b", "setting": "cluster A24 (APAP, 24 h)", "result": 0.2502}, {"measurement": "avg_logFC Gm26917", "setting": "cluster A24 (APAP, 24 h)", "result": 0.5819}, {"measurement": "avg_logFC Magt1", "setting": "cluster A24 (APAP, 24 h)", "result": 0.253}, {"measurement": "avg_logFC Nab1", "setting": "cluster A24 (APAP, 24 h)", "result": 0.2534}, {"measurement": "avg_logFC Nars", "setting": "cluster A24 (APAP, 24 h)", "result": 0.2657}, {"measurement": "avg_logFC Nedd4", "setting": "cluster A24 (APAP, 24 h)", "result": 0.2553}, {"measurement": "avg_logFC Ptprf", "setting": "cluster A24 (APAP, 24 h)", "result": 0.2512}, {"measurement": "avg_logFC Rab1", "setting": "cluster A24 (APAP, 24 h)", "result": 0.2582}, {"measurement": "avg_logFC Sec61b", "setting": "cluster A24 (APAP, 24 h)", "result": 0.2648}, {"measurement": "avg_logFC Srebf1", "setting": "cluster A24 (APAP, 24 h)", "result": 0.2874}, {"measurement": "avg_logFC Usp4", "setting": "cluster A24 (APAP, 24 h)", "result": 0.2727}, {"measurement": "avg_logFC Usp9x", "setting": "cluster A24 (APAP, 24 h)", "result": 0.2853}, {"measurement": "avg_logFC 1-Mar", "setting": "cluster A48 (APAP, 48 h)", "result": 0.2986}, {"measurement": "avg_logFC 0610005C13Rik", "setting": "cluster A48 (APAP, 48 h)", "result": 0.3977}, {"measurement": "avg_logFC 1600002H07Rik", "setting": "cluster A48 (APAP, 48 h)", "result": 0.2939}, {"measurement": "avg_logFC Abcb4", "setting": "cluster A48 (APAP, 48 h)", "result": 0.4702}, {"measurement": "avg_logFC Abcc3", "setting": "cluster A48 (APAP, 48 h)", "result": 0.4075}, {"measurement": "avg_logFC Abcd2", "setting": "cluster A48 (APAP, 48 h)", "result": 0.2906}, {"measurement": "avg_logFC Abhd14b", "setting": "cluster A48 (APAP, 48 h)", "result": 0.4104}, {"measurement": "avg_logFC Acadl1", "setting": "cluster A48 (APAP, 48 h)", "result": 0.3879}, {"measurement": "avg_logFC Acat1", "setting": "cluster A48 (APAP, 48 h)", "result": 0.3773}, {"measurement": "avg_logFC Acbd5", "setting": "cluster A48 (APAP, 48 h)", "result": 0.3517}, {"measurement": "avg_logFC Aco2", "setting": "cluster A48 (APAP, 48 h)", "result": 0.3054}, {"measurement": "avg_logFC Acot12", "setting": "cluster A48 (APAP, 48 h)", "result": 0.3091}, {"measurement": "avg_logFC Acsl1", "setting": "cluster A48 (APAP, 48 h)", "result": 0.3668}, {"measurement": "avg_logFC Agt", "setting": "cluster A48 (APAP, 48 h)", "result": 0.5339}, {"measurement": "avg_logFC Ahcy", "setting": "cluster A48 (APAP, 48 h)", "result": 0.4739}, {"measurement": "avg_logFC Ahsg", "setting": "cluster A48 (APAP, 48 h)", "result": 0.2506}, {"measurement": "avg_logFC Akr1c19", "setting": "cluster A48 (APAP, 48 h)", "result": 0.3705}, {"measurement": "avg_logFC Aldh9a1", "setting": "cluster A48 (APAP, 48 h)", "result": 0.4147}, {"measurement": "avg_logFC Aldoa", "setting": "cluster A48 (APAP, 48 h)", "result": 0.2635}, {"measurement": "avg_logFC Aldob", "setting": "cluster A48 (APAP, 48 h)", "result": 0.3758}, {"measurement": "avg_logFC Amy1", "setting": "cluster A48 (APAP, 48 h)", "result": 0.495}, {"measurement": "avg_logFC Anapc13", "setting": "cluster A48 (APAP, 48 h)", "result": 0.2762}, {"measurement": "avg_logFC Angptl3", "setting": "cluster A48 (APAP, 48 h)", "result": 0.7705}, {"measurement": "avg_logFC Apoa5", "setting": "cluster A48 (APAP, 48 h)", "result": 0.4366}, {"measurement": "avg_logFC Apoc1", "setting": "cluster A48 (APAP, 48 h)", "result": 0.3638}, {"measurement": "avg_logFC Apoc2", "setting": "cluster A48 (APAP, 48 h)", "result": 0.8142}, {"measurement": "avg_logFC Apoc3", "setting": "cluster A48 (APAP, 48 h)", "result": 0.3634}, {"measurement": "avg_logFC Apoc4", "setting": "cluster A48 (APAP, 48 h)", "result": 0.5053}, {"measurement": "avg_logFC Apoe", "setting": "cluster A48 (APAP, 48 h)", "result": 0.6102}, {"measurement": "avg_logFC Apoh", "setting": "cluster A48 (APAP, 48 h)", "result": 0.5359}, {"measurement": "avg_logFC Armc1", "setting": "cluster A48 (APAP, 48 h)", "result": 0.2587}, {"measurement": "avg_logFC Asgr2", "setting": "cluster A48 (APAP, 48 h)", "result": 0.3431}, {"measurement": "avg_logFC Aspdh", "setting": "cluster A48 (APAP, 48 h)", "result": 0.326}, {"measurement": "avg_logFC Atf5", "setting": "cluster A48 (APAP, 48 h)", "result": 0.3544}, {"measurement": "avg_logFC Atp5b", "setting": "cluster A48 (APAP, 48 h)", "result": 0.3451}, {"measurement": "avg_logFC Atp5g3", "setting": "cluster A48 (APAP, 48 h)", "result": 0.3996}, {"measurement": "avg_logFC Atp5j", "setting": "cluster A48 (APAP, 48 h)", "result": 0.4575}, {"measurement": "avg_logFC Atp5k", "setting": "cluster A48 (APAP, 48 h)", "result": 0.4074}, {"measurement": "avg_logFC Atp5h", "setting": "cluster A48 (APAP, 48 h)", "result": 0.7312}, {"measurement": "avg_logFC Azgp1", "setting": "cluster A48 (APAP, 48 h)", "result": 0.2836}, {"measurement": "avg_logFC Bfar", "setting": "cluster A48 (APAP, 48 h)", "result": 0.3018}, {"measurement": "avg_logFC Bnip3", "setting": "cluster A48 (APAP, 48 h)", "result": 0.5262}, {"measurement": "avg_logFC Brap", "setting": "cluster A48 (APAP, 48 h)", "result": 0.3395}, {"measurement": "avg_logFC Camk2n1", "setting": "cluster A48 (APAP, 48 h)", "result": 0.2578}, {"measurement": "avg_logFC Cd1d1", "setting": "cluster A48 (APAP, 48 h)", "result": 0.3518}, {"measurement": "avg_logFC Cdo1", "setting": "cluster A48 (APAP, 48 h)", "result": 0.4301}, {"measurement": "avg_logFC Cebpb", "setting": "cluster A48 (APAP, 48 h)", "result": 0.4231}, {"measurement": "avg_logFC Ces1b", "setting": "cluster A48 (APAP, 48 h)", "result": 0.5308}, {"measurement": "avg_logFC Ces1c", "setting": "cluster A48 (APAP, 48 h)", "result": 0.5861}, {"measurement": "avg_logFC Ces1f", "setting": "cluster A48 (APAP, 48 h)", "result": 0.3532}, {"measurement": "avg_logFC Ces2a", "setting": "cluster A48 (APAP, 48 h)", "result": 0.3404}, {"measurement": "avg_logFC Ces1d", "setting": "cluster A48 (APAP, 48 h)", "result": 0.3324}, {"measurement": "avg_logFC Chchd10", "setting": "cluster A48 (APAP, 48 h)", "result": 0.814}, {"measurement": "avg_logFC Cox5a", "setting": "cluster A48 (APAP, 48 h)", "result": 0.4303}, {"measurement": "avg_logFC Cox8a", "setting": "cluster A48 (APAP, 48 h)", "result": 0.5202}, {"measurement": "avg_logFC Cp", "setting": "cluster A48 (APAP, 48 h)", "result": 0.2715}, {"measurement": "avg_logFC Cpt2", "setting": "cluster A48 (APAP, 48 h)", "result": 0.3214}, {"measurement": "avg_logFC Creb3l3", "setting": "cluster A48 (APAP, 48 h)", "result": 0.3228}, {"measurement": "avg_logFC Creg1", "setting": "cluster A48 (APAP, 48 h)", "result": 0.418}, {"measurement": "avg_logFC Ctsd", "setting": "cluster A48 (APAP, 48 h)", "result": 0.3237}, {"measurement": "avg_logFC Ctsh", "setting": "cluster A48 (APAP, 48 h)", "result": 0.4649}]}
